According to article PMC10610505, “Synthesis and Biological Evaluation of Some New 3-Aryl-2-thioxo-2,3-dihydroquinazolin-4(1H)-ones and 3-Aryl-2-(benzylthio)quinazolin-4(3H)-ones as Antioxidants; COX-2, LDHA, α-Glucosidase and α-Amylase Inhibitors; and Anti-Colon Carcinoma and Apoptosis-Inducing Agents” (Pharmaceuticals, 2023):
Several values for one entry are separate records, joined by “and”; a condition that tells them apart may be missing. Equal values may be shown once. Read-outs that look alike come from different tables or passages of the source.

How the values were obtained:
[1] = system: HCT-116 human colon carcinoma cells; assay: Viability assay (LDH release), HCT-116; type: cell-based; conditions: for viability at 200 µg/mL: HCT-116, 48 h, read-out: Mean % of viable cells ± SD, HCT-116
Outline: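 HCT-116 human colon carcinoma cells were cultured for 24 h at 37 °C in a humidified 5% CO2 incubator. Samples diluted in Dulbecco’s Modified Eagle’s Medium with 10% FBS were then added. Lactate dehydrogenase released from damaged cells was measured in supernatants by ELISA end-point reading at 550 nm. Controls were 0.1% Triton X-100 (positive) and assay medium alone (negative).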

[2] = Viability assay (LDH release), HUVEC; type: cell-based, human; conditions: human
Procedure: The samples were diluted in Dulbecco’s Modified Eagle’s Medium, consisting of 10% fetal bovine serum (FBS), added to cells grown and cultured for 24 h in a 5% CO2-humidified incubator at 37 °C. Thereafter, the activity of lactate dehydrogenase released from damaged cells was determined in the collected supernatant aliquots using an ELISA end-point assay (Benchmark Plus, Bio-Rad, CA, USA); 0.1% Triton X-100 in the assay medium and the assay medium only were used as the positive and negative controls, respectively. Cell viability was expressed as a relative percentage of the OD values (at 550 nm) for compound-treated cells (final concentration of 200 µg /mL) and the negative control, which was shown as the mean % ± SD (n = 3). The results of the viability assays for the potential cytotoxic candidates were compared with the % of viable human umbilical vein endothelial cells (HUVEC) at the same concentration. These cells were grown in Dulbecco’s Modified Eagle’s Medium (PAN-Biotech; Barcelona, Spain) containing 10% FBS (Sigma Aldrich; St. Quentin-Fallavier, France), 2 mM Glutamine (Sigma Aldrich), 100 units/mL penicillin and […] streptomycin (Life Technologies; Paisley, UK).

[3] = system: caspase-8; assay: Western blot of caspase-8 in cell lysates; type: cell-based, human; conditions: 50 µg/mL, 48 h
Procedure: (§1) Furthermore, in order to confirm the implication of these compounds in the apoptotic pathways trigged by caspases, the proteins levels of caspases 8 and 9 were evaluated using Western blot analysis for the HCT-116 and LoVo carcinoma cells lysates after treatment with compounds 3a and 3f (50 µg/mL for 48 h); the untreated cells were used as a negative control.
(§2) In order to determine the levels of production of caspases 8 and 9 by the treated carcinoma cells, Western blot analysis was carried out using a FLAG® Western Detection Kit (Agilent Technologies, USA). Exponentially growing HCT-116 and LoVo cells were treated with 50 µg/mL of derivatives 3a and 3f for 48 h. After incubation, the cells were harvested and lysed using a Lysis buffer consisting of 10 mM of Tris, 100 mM of NaCl, 25 mM of ethylenediaminetetra aceticacid (EDTA), 25 mM of Ethylene glycol bis(2-aminoethyl)tetraacetic acid (EGTA), 0.1% Sodium dodecyl sulfate (SDS), 1% (v/v) Triton X-100 and 2% (v/v) NP-40 (pH 7.4), with a 1:200 protease inhibitor cocktail (Sigma-Adrich) and a 1:300 phosphatase inhibitor cocktail tablet (Roche Applied Science, Mannheim, Germany). The protein concentrations of each sample were determined calorimetrically using the Bradford method before proceeding to carry out the Western blotting. Equal amounts (20 µg) of the protein samples were mixed and boiled with SDS Loading buffer for 10 min, allowed to cool on ice and then loaded into SDS-polyacrylamide gel and separated using a Cleaver electrophoresis unit (Cleaver, Warwickshire, UK), before being transferred onto polyvinylidene fluoride (PVDF) membranes (Bio-Rad, USA) for 30 min using a Semi-dry Electroblotter (Biorad, USA) at 2.5 A and 25 V for 30 min. The membrane was blocked with 5% nonfat dry milk in TBS-T for two hours at room temperature, in order to reduce non-specific protein interactions between the membrane and the antibody. The blocked membrane was incubated overnight at 4 °C with primary antibodies (Cell Signaling Technology, Massachusetts, USA) and β-actin (Sigma). […] Briefly, the membranes were incubated for 1 min with a mixture of equal volumes of ECL solution A and ECL solution B. The chemiluminescent signals were captured using a CCD camera-based imager (Chemi Doc imager, Biorad, USA), and the bands’ intensities were then measured using ImageLab v3.0 (Bio-Rad). […] The proteins were detected using an enhanced chemiluminescence (ECL) detection system (Thermo Fischer Scientific, USA). The intensities of the bands were quantified using the NIH ImageJ software v3.0.1 (http://rsb.info.nih.gov/ij/).

[4] = system: caspase-9; assay: Western blot of caspase-9 in cell lysates; type: cell-based, human; conditions: 50 µg/mL, 48 h
Procedure: as §1, §2

[5] = system: HCT-116 carcinoma cells; assay: Cell cycle assay (PI flow cytometry), HCT-116; type: cell-based, human; conditions: 50 µg/mL, 48 h
Procedure: In the current study, the cell cycle distribution of the treated HCT-116 and LoVo carcinoma cells with compounds 3a and 3f was assessed by labeling the cell’s DNA with PI stain in order to determine if the induction of apoptosis in carcinoma cells could be related to the cell cycle arrest (Figure 8A–F). The intensity of the PI stain is proportional to the cell’s DNA content (Figure 9). […] The ability of the tested compounds (3a and 3f) to block the cell cycle progression in LoVo and HCT-116 cells confirmed their anticancer potential against these colon carcinoma cell lines and could explain the mechanism of the observed cytotoxicity.
Changes in cell cycle distribution induced by compounds 3a and 3f were analyzed using a flow cytometric analysis according to Nicoletti et al. 1991 [108] using a Propidium Iodide Flow Cytometry Kit for Cell Cycle Analysis (Abcam-UK). HCT-116 and LoVo carcinoma cells (5 × 10^4 cells/mL) were treated with DMSO as a negative control, and compounds 3a and 3f (50 µg/mL), for 48 h. After the centrifugation of the treated cells at 1800 rpm for 5 min, the pellet was washed twice with PBS. Then, the cells were fixed by mixing […] of 90% cold ethanol, and stained with propidium iodide (PI) for 1 h at 37 °C. […] The stained cells were analyzed for their DNA content using a BD FACSC flow cytometer.

[6] = Homo sapiens, HCT-116, from concentration–response curves
[7] = from concentration–response curves

SMILES | viability at 200 µg/mL ([1]; Homo sapiens) [%] | IC50 [1, 6] | IC50 [1, 7] [µM] | viability at 200 µg/mL [2] [%] | Increase in expressional level of caspase 8 ([3]; lysates of HCT-116) [times] | Increase in expressional level of caspase 8 ([3]; lysates of LoVo) [times] | Increase in expression level of caspase-9 ([4]; lysates of HCT-116) [times] | Increase in expression level of caspase-9 ([4]; lysates of LoVo) [times] | Cells in G1 phase (%DIP G1) [5] [%] | viability at 200 µg/mL ([2]; human umbilical vein endothelial cells (HUVEC), 200 µg/mL, read-out: Mean % of viable cells ± SD, HUVEC) [%]
O=c1c2cc(Cl)ccc2[nH]c(=S)n1-c1ccc([N+](=O)[O-])cc1 [Compound 3f, 6-Chloro-3-(4-nitro-phenyl)-2-thioxo-2,3-dihydro-1H-quinazolin-4-one] | 4.67 ± 0.577 | 324 µM and 108 µg/mL | 324 | 99.67 ± 0.577 | 2.2 | 4.1 | 3.1 | 4.8 | 57.81 | 
O=c1c2cc(Cl)ccc2[nH]c(=S)n1-c1cccc(C(F)(F)F)c1 [Compound 3a, 6-Chloro-2-thioxo-3-(3-trifluoromethyl-phenyl)-2,3-dihydro-1H-quinazolin-4-one] | 26.8 ± 1.26 | 298 µM and 106 µg/mL | 298 |  | 2.3 | 5.1 | 3.6 | 7.2 | 53.51 | 97 ± 2.65
